Results on two compounds are retold here after patent US20240335438A1, “TARGETING DOT1L AND SMARCA4/2 FOR THE TREATMENT OF MLLR LEUKEMIA” (DANA-FARBER CANCER INSTITUTE, INC., priority 2021, published 2024).

“Also recorded” adds a separate entry of the source.

The subject of one data set is cleaved PARP. Nature of the data set: Cleaved PARP expression (apoptosis). As to conditions: after 6 hours of treatment. Format: cell-based. How it is done: (§1) MOLM13 WT and CRBN KO cells were treated with 1 μM of S31 at indicated time points. Cell lysates were harvested, and proteins were extracted using RIPA buffer.
Chemical inhibition of targeted proteins offered the opportunity to understand the function and therapeutic potential of the targets with temporal control. There are several small molecule inhibitors that have been reported to target SMARCA2/4. […] Therefore, PROTACs, bridging small molecules that recruit the target protein into proximity with the E3 ligase system to initiate proteasomal degradation of targeted proteins inside the cells, were developed to target SMARCA2/4. The strategy has recently been described and utilized for the depletion of multiple targets including BRD4, FKBP12, ERR, RIPK2 and BRD9. Compound (1) (S31) is a molecule that contains phthalimide (thalidomide, lenalidomide and pomalidomide, also known as IMiDs®), a CRBN binder, and a SMARCA4/2 binder that are linked via an alkyl linker. The PROTAC dimerized targeted proteins and CRBN, and induced polyubiquitylation followed by proteasomal degradation of SMARCA4/2.

The next data set has as its target His-CRBN (Homo sapiens, UniProt Q96SW2). Nature of the data set: CRBN binding, biotin-pomalidomide probe with streptavidin donor and nickel chelate acceptor beads. As to conditions: 50 nM His-CRBN, 1 hr, FIG. 1B. How it is done:
50 nM of His-CRBN was incubated with biotinylated probe (biotin-pomalidomide), streptavidin donor beads (PerkinElmer®), nickel chelate acceptor beads (PerkinElmer®) and compounds (S31, PFI3 or pomalidomide at indicated concentrations) for 1 hr. After incubation, […] was read according to manufacture instructions (FIG. 1B).

For data set [1], the system named is panel of leukemia cell lines. As to the kind of experiment: Growth inhibition in a panel of leukemia cell lines (ATPlite). Format: cell-based. As to conditions: 72 hr, FIG. 3. How it is done: S31 was treated in a panel of leukemia cell lines with 10 doses ranging from 10 μM to 1 nM. After 72 hr of treatment, growth inhibition was determined by ATPlite™ (PerkinElmer®). IC50 was calculated by GraphPad Prism® 7 (FIG. 3).
In general terms: In ATP-based viability assays light output follows the ATP content of the culture.

Data set [2] has as its target T1, SMARCA2 (Homo sapiens, UniProt P51531). Nature of the data set: SMARCA2 degradation by Western Blotting in MOLM13 cells. Format: cell-based. Further details: endogenous in cells; host or cells: MOLM13 WT and CRBN KO cells. The note with it: MOLM13 WT and CRBN KO cells, 1 μM, indicated time points, FIG. 2. On the procedure: as §1
A general note: In western blotting, separated proteins are transferred to a membrane and probed.

Data set [3] addresses T2, SMARCA4 (Homo sapiens, UniProt P51532). As to the kind of experiment: DSF assay (Protein Thermal Shift Dye Kit), SMARCA4 binding. As to conditions: 30 min incubation, indicated ratios, FIG. 1A. How it is done: (§2) Recombinant SMARCA4 and SMARCA2 proteins were incubated with S31 at indicated ratios. After 30 min of incubation, DSF assay was performed using Protein Thermal Shift™ Dye Kit (ThermoFisher™) according to manufacture instructions (FIG. 1A).
In general terms: Differential scanning fluorimetry follows unfolding on heating by fluorescence.

In data set [4] the target is T2, SMARCA4. As to the kind of experiment: SMARCA4 degradation by Western Blotting in MOLM13 cells. More on the design: endogenous in cells; host or cells: MOLM13 WT and CRBN KO cells. The note with it: MOLM13 WT and CRBN KO cells, 1 μM, indicated time points, FIG. 2. Format: cell-based. How it is done:
as §1

Data set [5] has as its target T1, SMARCA2. Nature of the data set: DSF assay (Protein Thermal Shift Dye Kit), SMARCA2 binding. As to conditions: 30 min incubation, indicated ratios, FIG. 1A. How it is done:
as §2

The subject of a further data set is MLL-AF9 targets. As to the kind of experiment: RNA sequencing of MLL-AF9 targets (heatmap, GSEA) in MOLM13 cells. Format: cell-based. The note with it: EPZ5676 1.25 μM 4 days, S31 1 μM 6-10 hr, FIG. 11A. On the procedure:
MOLM13 cells were primed with 1.25 μM of EPZ5676 or DMSO for 4 days. At day 5, additional S31 (1 μM) or DMSO was added for another 6-10 hr. Cells were harvested and subjected to RNA isolation. Isolated RNA was sent to Novogene (USA) for RNA sequencing. Expression values of MLL-AF9 targets from each treatment group were plotted in heatmap (Morpheus) (FIG. 11A). GSEA analysis was performed by GSEA software 4.1.0 (Broad Institute) (FIG. 11B).
The molecular interdependency between DOT1L inhibition and SMARCA4/2 inactivation was explored using RNA-seq in MOLM13 cells treated with DMSO. S31. EPZ5676 and S31+EPZ5676. Persistent expression of MLL fusion targets maintained the leukemic transformation as a stem cell-like state. […] To define a detailed regulatory pattern of the effects of SMARCA4/2 and DOT1L on these genes, the RNA-seq results were plotted in a heatmap and identified one subset of genes are of particular interest. […] However, the combination of the two induced significant reduction of genes such as MYB and FLT3, which are critical for MLLr leukemia proliferation. S31 sensitized such MLL-AF9) targets to EPZ5676. This was confirmed via Q-PCR.

Data set [6] has as its system MLLr acute myeloid leukemia (AML). As to conditions: cited from earlier work.
The test system of another data set is MLL rearranged cells. The note with it: cited from earlier work.

T1 sequence (P51531 whole entry): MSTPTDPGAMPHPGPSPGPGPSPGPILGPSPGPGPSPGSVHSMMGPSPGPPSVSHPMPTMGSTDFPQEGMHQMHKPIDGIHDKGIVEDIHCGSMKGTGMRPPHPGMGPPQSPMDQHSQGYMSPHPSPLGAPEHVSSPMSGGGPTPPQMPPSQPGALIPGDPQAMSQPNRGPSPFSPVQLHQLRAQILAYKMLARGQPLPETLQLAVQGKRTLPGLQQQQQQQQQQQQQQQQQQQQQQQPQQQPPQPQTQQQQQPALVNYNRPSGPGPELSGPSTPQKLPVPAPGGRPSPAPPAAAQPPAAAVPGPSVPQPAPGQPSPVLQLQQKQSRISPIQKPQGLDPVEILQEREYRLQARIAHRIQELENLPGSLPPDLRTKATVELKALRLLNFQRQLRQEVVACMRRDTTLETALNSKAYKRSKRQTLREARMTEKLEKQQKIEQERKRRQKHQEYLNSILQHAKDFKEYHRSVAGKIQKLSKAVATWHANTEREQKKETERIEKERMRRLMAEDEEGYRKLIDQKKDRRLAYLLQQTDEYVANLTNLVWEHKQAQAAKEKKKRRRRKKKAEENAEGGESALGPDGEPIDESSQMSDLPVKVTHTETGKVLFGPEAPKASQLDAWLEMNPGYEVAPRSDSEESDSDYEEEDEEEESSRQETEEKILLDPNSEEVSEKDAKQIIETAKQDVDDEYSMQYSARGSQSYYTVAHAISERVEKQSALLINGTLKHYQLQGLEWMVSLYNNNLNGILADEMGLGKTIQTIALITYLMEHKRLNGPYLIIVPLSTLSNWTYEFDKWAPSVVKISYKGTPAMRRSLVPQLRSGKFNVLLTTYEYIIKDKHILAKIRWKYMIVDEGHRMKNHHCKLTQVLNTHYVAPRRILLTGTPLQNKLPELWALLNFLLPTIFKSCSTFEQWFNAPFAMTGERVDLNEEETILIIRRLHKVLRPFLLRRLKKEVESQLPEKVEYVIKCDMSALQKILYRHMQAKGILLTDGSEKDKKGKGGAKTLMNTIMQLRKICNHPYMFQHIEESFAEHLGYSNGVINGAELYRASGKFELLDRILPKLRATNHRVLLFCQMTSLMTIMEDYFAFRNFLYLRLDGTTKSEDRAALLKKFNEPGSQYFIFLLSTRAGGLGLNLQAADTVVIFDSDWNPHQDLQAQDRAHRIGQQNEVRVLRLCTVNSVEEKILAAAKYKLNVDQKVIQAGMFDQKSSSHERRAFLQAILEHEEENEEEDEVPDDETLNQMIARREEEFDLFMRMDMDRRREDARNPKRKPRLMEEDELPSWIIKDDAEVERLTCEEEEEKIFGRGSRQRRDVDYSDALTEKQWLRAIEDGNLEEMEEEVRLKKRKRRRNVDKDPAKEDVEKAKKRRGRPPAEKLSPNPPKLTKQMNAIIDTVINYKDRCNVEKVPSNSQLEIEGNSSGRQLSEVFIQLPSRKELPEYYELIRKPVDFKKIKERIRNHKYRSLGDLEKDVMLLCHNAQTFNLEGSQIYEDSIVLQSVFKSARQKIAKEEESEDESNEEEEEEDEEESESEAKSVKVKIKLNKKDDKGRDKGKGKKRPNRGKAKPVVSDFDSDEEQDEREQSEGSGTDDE
T2 sequence (P51532 whole entry): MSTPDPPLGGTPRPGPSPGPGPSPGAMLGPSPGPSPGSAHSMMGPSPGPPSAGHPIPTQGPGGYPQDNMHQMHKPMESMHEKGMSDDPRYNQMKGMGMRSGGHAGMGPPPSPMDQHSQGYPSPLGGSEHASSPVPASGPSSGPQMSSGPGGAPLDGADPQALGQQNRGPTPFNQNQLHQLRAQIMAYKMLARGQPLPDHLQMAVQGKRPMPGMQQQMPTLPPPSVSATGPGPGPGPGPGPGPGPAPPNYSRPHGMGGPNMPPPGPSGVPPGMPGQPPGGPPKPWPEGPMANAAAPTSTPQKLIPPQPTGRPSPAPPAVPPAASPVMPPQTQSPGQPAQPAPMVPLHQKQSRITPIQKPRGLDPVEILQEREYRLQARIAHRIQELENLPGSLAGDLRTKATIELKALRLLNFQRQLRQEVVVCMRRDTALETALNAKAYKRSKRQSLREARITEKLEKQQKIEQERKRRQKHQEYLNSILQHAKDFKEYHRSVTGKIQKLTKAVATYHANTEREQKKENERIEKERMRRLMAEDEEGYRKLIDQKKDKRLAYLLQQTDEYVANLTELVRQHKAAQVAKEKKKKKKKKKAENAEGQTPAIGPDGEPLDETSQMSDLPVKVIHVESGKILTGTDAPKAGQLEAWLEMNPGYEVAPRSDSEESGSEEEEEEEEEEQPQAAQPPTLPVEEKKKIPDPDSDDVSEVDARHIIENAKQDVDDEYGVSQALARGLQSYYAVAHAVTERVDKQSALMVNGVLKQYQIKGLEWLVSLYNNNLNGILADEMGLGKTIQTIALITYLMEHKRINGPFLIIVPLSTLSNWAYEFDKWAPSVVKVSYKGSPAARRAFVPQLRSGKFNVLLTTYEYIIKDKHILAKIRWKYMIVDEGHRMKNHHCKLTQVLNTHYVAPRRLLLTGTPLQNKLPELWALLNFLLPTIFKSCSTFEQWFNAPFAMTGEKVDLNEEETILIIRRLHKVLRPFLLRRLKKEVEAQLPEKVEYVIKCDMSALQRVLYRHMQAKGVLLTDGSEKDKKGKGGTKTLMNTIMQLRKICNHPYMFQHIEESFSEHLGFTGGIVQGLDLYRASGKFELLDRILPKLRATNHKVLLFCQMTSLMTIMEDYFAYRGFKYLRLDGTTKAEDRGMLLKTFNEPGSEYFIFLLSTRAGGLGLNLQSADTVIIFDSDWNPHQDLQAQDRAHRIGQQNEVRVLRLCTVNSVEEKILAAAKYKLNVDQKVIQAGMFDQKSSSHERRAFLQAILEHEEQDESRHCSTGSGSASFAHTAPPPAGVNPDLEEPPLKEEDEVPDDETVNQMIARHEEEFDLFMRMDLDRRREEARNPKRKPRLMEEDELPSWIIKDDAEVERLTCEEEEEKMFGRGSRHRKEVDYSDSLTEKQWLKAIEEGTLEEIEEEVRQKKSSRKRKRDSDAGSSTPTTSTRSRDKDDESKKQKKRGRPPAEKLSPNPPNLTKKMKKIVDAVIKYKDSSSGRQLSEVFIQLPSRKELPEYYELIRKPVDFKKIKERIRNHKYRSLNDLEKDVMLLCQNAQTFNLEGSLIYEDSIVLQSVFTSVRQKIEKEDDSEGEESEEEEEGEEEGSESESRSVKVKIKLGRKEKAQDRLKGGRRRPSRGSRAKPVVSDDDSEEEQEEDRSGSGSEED
Sequence of His-CRBN (Q96SW2 whole entry): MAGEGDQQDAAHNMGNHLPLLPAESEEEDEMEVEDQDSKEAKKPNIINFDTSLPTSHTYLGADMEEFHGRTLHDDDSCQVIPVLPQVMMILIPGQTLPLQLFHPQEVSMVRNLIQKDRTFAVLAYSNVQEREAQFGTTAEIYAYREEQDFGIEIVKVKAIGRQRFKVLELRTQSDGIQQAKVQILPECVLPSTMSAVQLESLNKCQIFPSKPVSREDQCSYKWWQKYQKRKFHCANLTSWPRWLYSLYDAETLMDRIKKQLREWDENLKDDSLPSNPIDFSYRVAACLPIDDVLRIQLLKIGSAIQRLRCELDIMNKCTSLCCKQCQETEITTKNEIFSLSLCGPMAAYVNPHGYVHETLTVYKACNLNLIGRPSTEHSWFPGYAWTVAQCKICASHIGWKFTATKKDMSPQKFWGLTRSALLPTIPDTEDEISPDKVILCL

Regarding `O=C1CCC(N2C(=O)c3ccc(NCCCCCCCCOCCc4cccc(N5C[C@H]6C[C@@H]5CN6/C=C/C(=O)c5ccccc5O)c4)cc3C2=O)C(=O)N1` (stereo partly drawn) [S31, 2-(2,6-dioxopiperidin-3-yl)-5-((8-(3-((1R,4R)-5-((E)-3-(2-hydroxyphenyl)-3-oxoprop-1-en-1-yl)-2,5-diazabicyclo[2.2.1]heptan-2-yl)phenethoxy)octyl)amino)isoindoline-1,3-dione], in the data set with cleaved PARP, the “cleaved PARP expression, indicating apoptosis” value is recorded as “cleaved PARP expression abundance was observed”. Besides, at His-CRBN, the “binding to CRBN” value is listed as “binds”. In addition, in data set [1] (10 doses from 10 μM to 1 nM), the “IC50 of cell growth” value is recorded as “low nanomolar range”. The “cell growth inhibition / cytotoxicity” value in [1] is listed as “profound inhibition; also recorded: induces cytotoxicity”. On SMARCA2 [2], the SMARCA2 degradation entry is reported as “degraded; also recorded: degradation was observed”. The “binding to SMARCA4” value at SMARCA4 [3] is on record as “binds”. In addition, the SMARCA4 degradation result at SMARCA4 [4] is “degraded; also recorded: degradation was observed”. The “binding to SMARCA2” value on SMARCA2 [5] is “binds”. In addition, the “expression of MLL-AF9 target genes (subset such as MYB and FLT3), RNA-seq heatmap” value with MLL-AF9 targets is “could not—or just slightly—affect the gene expression; also recorded: sensitizes MLL-AF9 targets to EPZ5676”.

For the compound `CC(C)N(C[C@H]1OC(n2cnc3c(N)ncnc32)[C@H](O)[C@@H]1O)C1CC(CCc2nc3cc(C(C)(C)C)ccc3[nH]2)C1` (stereo partly drawn) [EPZ5676, (2R,3R,4S,5R)-2-(6-amino-9H-purin-9-yl)-5-((((1s,3R)-3-(2-(5-(tert-butyl)-1H-benzo[d]imidazol-2-yl)ethyl)cyclobutyl)(isopropyl)amino)methyl)tetrahydrofuran-3,4-diol], the clinical response entry in data set [6] (monotherapy) was “low effective responses and subsequent relapses”. In addition, the side effect profile entry in data set [6] (treatment of MLLr AML) is “promising side effect profile”. For the same compound, the anti-proliferative effects result in the data set on MLL rearranged cells is “remarkably selective anti-proliferative effects”. In addition, the “expression of MLL-AF9 target genes (subset such as MYB and FLT3), RNA-seq heatmap” value with MLL-AF9 targets was “could not—or just slightly—affect the gene expression”.
